Test results taken from US20120088667A1, “SAFENING AGENT” (priority 2009, published 2012).

Assays:
[1] = test system: Winter Barley cv Saffron; experiment: Safening of fertilisers, pot trial: phytotoxicity and vigour scores, winter barley; type: in vivo; conditions: for Vigour (0-9) + 28 Days / Vigour (0-9) (9 = Most Vigour) + 14 days: score 0-9; for Phytotoxicity (0-9) (0 = Dead) + 14 Days / Phytotoxicity (0-9) (0 = Dead) + 28 Days: score 0-9, 0 = dead
Excerpt: (§1) The safening system and the fertilizer were applied either simultaneously or sequentially.
(§2) Sprayed: mid-tillering phase (GS23). Winter Wheat: cv Limerick, sown 4 Jun. […] Sprayed: mid-tillering phase (GS23). Lettuce: cv Set, sown 10 Jul. 2008, at one seed per pot, in John Innes No 1 compost. Date of spraying: 30 July; Dates of measurement: 7 August, 14 August, 28 August. Sprayed: 2 true leaf stage.

[2] = test system: Maize cv Sundance (i.e. not Roundup Ready); conditions: no glyphosate
[3] = test system: Lettuce cv Set; experiment: Safening of fertilisers, pot trial: phytotoxicity and vigour scores, lettuce; type: in vivo
Excerpt: as §1, §2

[4] = test system: Winter wheat cv Alchemy; experiment: Safening of herbicides (Chlorotoluron, Isoproturon, Flumioxazin), winter wheat
Excerpt: Safening systems were applied to crops of oilseed rape and winter treated with various herbicides (Bifenox (with insecticide), Carbetamide, Propaquizafop, Chlorotoluron, Isoproturon, Flumioxazin). The safening system and the herbicide were applied to the crops either simultaneously or sequentially.
Oilseed rape: cv Excalibur, sown 26 Apr. 2008, at two seeds per 9 cm pot, sown in normal pH multi-purpose compost. Date of spraying: 6 June; Dates of measurement/scoring: 13 June, 20 June, 5 July. Winter wheat: cv Alchemy, sown 23 Apr. 2008, at seven seeds per 9 cm pot, sown in normal pH multi-purpose compost. Date of spraying: 24 May; Dates of measurement/scoring: 31 May, 7 June, 21 June. SAF: at least one from class (f) each at <3 g/l, plus at least one from class (c).
Statistical Layout: Randomised Complete Block trials, under glasshouse conditions, United Kingdom.

[5] = Table 1.2, winter barley, KP/ATS
[6] = Table 1.3, winter barley, general fertilisers
[7] = Table 1.7, lettuce, phosphite fertiliser (KP), score 0-9, 0 = dead
[8] = Table 1.7, lettuce, phosphite fertiliser (KP), score 0-9
[9] = Table 1.8, lettuce, KP/ATS, score 0-9
[10] = Table 1.9, lettuce, general fertilisers, score 0-9, 0 = Dead

Nc1ccccc1C(=O)O [AN, anthranilic acid]
Vigour (0-9) + 28 Days ([1]; Table 1.1, winter barley, phosphite fertiliser (KP)): 8.0
Phytotoxicity (0-9) (0 = Dead) + 14 Days ([1]; Table 1.2, winter barley, KP + ammonium thiosulphate (KP/ATS)): 7.5
Phytotoxicity (0-9) (0 = Dead) + 28 Days [1, 5]: 8.0
Vigour (0-9) (9 = Most Vigour) + 14 days [1, 5]: 7.0
Vigour (0-9) + 28 Days [1, 5]: 8.0
Phytotoxicity (0-9) (0 = Dead) + 14 Days ([1]; Table 1.3, winter barley, general NPK fertilisers (GEN + KP, GENEX)): 7.5
Phytotoxicity (0-9) (0 = Dead) + 28 Days [1, 6]: 8.0
Vigour (0-9) (9 = Most Vigour) + 14 days [1, 6]: 7.0
Vigour (0-9) + 28 Days [1, 6]: 8.0
Phytotoxicity (0-9) (0 = Dead) + 14 Days ([2]; scale 0-9, 0=dead, 9=least phytotoxicity, 14 days after spraying): 8.0
Phytotoxicity (0-9) (0 = Dead) + 28 Days ([2]; scale 0-9, 0=dead, 9=least phytotoxicity, 28 days): 8.0
Phytotoxicity (0-9) (0 = Dead) + 41 days ([2]; scale 0-9, 0=dead, 9=least phytotoxicity, 41 days): 8.0
Vigour (0-9) + 14 Days ([2]; scale 0-9, 0=least vigour, 9=most vigour, 14 days): 8.0
Vigour (0-9) + 28 Days ([2]; scale 0-9, 0=least vigour, 9=most vigour, 28 days): 8.0
Vigour (0-9) + 41 Days ([2]; scale 0-9, 0=least vigour, 9=most vigour, 41 days): 8.0
Phytotoxicity (0-9) (0 = Dead) + 14 Days [3, 7]: 7.0
Phytotoxicity (0-9) (0 = Dead) + 28 Days [3, 7]: 7.0
Vigour (0-9) (9 = Most Vigour) + 14 days [3, 8]: 8.0
Vigour (0-9) + 28 Days [3, 8]: 8.0
Phytotoxicity (0-9) (0 = Dead) + 14 Days ([3]; Table 1.8, lettuce, KP + ammonium thiosulphate (KP/ATS), score 0-9, 0 = dead): 7.0
Phytotoxicity (0-9) (0 = Dead) + 28 Days ([3]; Table 1.8, lettuce, KP/ATS, score 0-9, 0 = dead): 7.0
Vigour (0-9) (9 = Most Vigour) + 14 days [3, 9]: 8.0
Vigour (0-9) + 28 Days [3, 9]: 8.0
Phytotoxicity (0-9) (0 = Dead) + 14 Days [3, 10]: 7.0
Phytotoxicity (0-9) (0 = Dead) + 28 Days [3, 10]: 7.0
Vigour (0-9) (9 = Most Vigour) + 14 days ([3]; Table 1.9, lettuce, general fertilisers, score 0-9, 9 = Most Vigour): 8.0
Vigour (0-9) + 28 Days ([3]; Table 1.9, lettuce, general fertilisers, score 0-9): 8.0
Greenness (0-9) (9 = Deeper Green) + 14 Days ([4]; Table 3.3, no herbicide): 8.0
Phytotoxicity (0-9) (0 = Dead) + 14 Days ([4]; Table 3.3, no herbicide): 9.0
Vigour (0-9) (9 = Most Vigour) + 14 days ([4]; Table 3.3, no herbicide): 9.0
Greenness (0-9) + 28 Days ([4]; Table 3.3, no herbicide): 8.0
Phytotoxicity (0-9) + 28 Days ([4]; Table 3.3, no herbicide): 8.0
Vigour (0-9) + 28 Days ([4]; Table 3.3, no herbicide): 8.0
Greenness (0-9) (9 = Deeper Green) + 14 Days ([4]; Table 3.4, no herbicide): 8.0
Phytotoxicity (0-9) (0 = Dead) + 14 Days ([4]; Table 3.4, no herbicide): 9.0
Vigour (0-9) (9 = Most Vigour) + 14 days ([4]; Table 3.4, no herbicide): 9.0
Greenness (0-9) + 28 Days ([4]; Table 3.4, no herbicide): 8.0
Phytotoxicity (0-9) + 28 Days ([4]; Table 3.4, no herbicide): 8.0
Vigour (0-9) + 28 Days ([4]; Table 3.4, no herbicide): 8.0
Greenness (0-9) (9 = Deeper Green) + 14 Days ([4]; Table 3.5, no herbicide): 8.0
Phytotoxicity (0-9) (0 = Dead) + 14 Days ([4]; Table 3.5, no herbicide): 9.0
Vigour (0-9) (9 = Most Vigour) + 14 days ([4]; Table 3.5, no herbicide): 9.0
Greenness (0-9) + 28 Days ([4]; Table 3.5, no herbicide): 8.0
Phytotoxicity (0-9) + 28 Days ([4]; Table 3.5, no herbicide): 8.0
Vigour (0-9) + 28 Days ([4]; Table 3.5, no herbicide): 8.0
